Here are results for three compounds from patent US20100048676A1, “Non-androgen dependent roles for androgen receptor in liver cancer” (University of Rochester, priority 2008, published 2010).

Where two headings read alike, the source gives them in different places.

For data set [1], the system named is SKAR3 cells. The data set is described as follows: AR siRNA effect on SKAR3 cell growth (SKAR3-sc vs SKAR3-si1). Format: cell-based, human. Conditions: 1 nM DHT. The text has this: (§1) FIG. 6. Targeting AR as therapeutic strategy. (A) Establishment of AR siRNA stable transfectants of human SKAR3 cells. Scrambled siRNA (SKAR3-sc, lane 3) and different siRNA targeting AR (SKAR3-si1; SKAR3-si2; SKAR3-si3) stable transfectants derived from SKAR3 cells. LNCaP and SK-Hep1 cells served as positive and negative controls of AR expression, respectively. (B) AR transactivation activity was used to examine the knockdown efficiency of AR siRNA in the SKAR3 cells. The SKAR3-si1 cells were used to compare with SKAR3-sc cells and treated with EtOH and 1 nM DHT for 24 hrs after ARE(4)-luciferase transfection. The readings were normalized with the read out of pRL-TK cotransfection and pooled three individual experiments. (C) AR siRNA effect on SKAR3 cell growth. SKAR3-sc and SKAR3-si1 cells were treated with EtOH or 1 nM DHT, then observed cell growth by counting cells on different days. (D) ASC-J9 effect on SKAR3 and SKAR7 cells. Cells were plated and cultured with EtOH, 10 nM DHT and 5 μM ASC-J9 for different days and examined cell growth using MTT assay. (E) ASC-J9 effect on SKAR3 cell apoptosis and proliferation. Cells were cultured with 10 nM DHT, or 5 μM ASC-J9 for 24 hrs, then detached, stained with PI, assayed immediately by flowcytometry to observe cell apoptosis. […] Six injection sites from 3 mice were measured and pooled. […]

Data set [2] has as its system AR. Particulars: MCF-7 cells, retrovirus-based vector; cited from earlier work.
Data set [3] deals with AR. The data set is described as follows: AR expression in SKAR3 cells stably transfected with AR-siRNA. In kind it is cell-based, human. Conditions: SKAR3-si1, 2 or 3 vs SKAR3-sc.
Text: as §1

Data set [4] deals with AR transactivation. Description: ARE(4)-luciferase promoter assay of AR transactivation in SKAR3 sublines. Format: cell-based, human. Particulars: 1 nM DHT.
Text: as §1

Data set [5] deals with SKAR3 cells. Conditions: 10 nM DHT. The text has this: (§2) FIG. 3. […] (A) Apoptotic cells in SKpar and SKAR3 cells. […] (B) Androgen and AR effect on anchorage-dependent cell growth. […] (C) Anchorage-independent cell growth of SKpar and SKAR3 cells. Cell clusters greater than 50 cells were counted as a positive clone.
Data set [6] has as its system superoxide dismutase 2 (SOD2). Particulars: 10 nM DHT. The method, then: (§3) FIG. 10. Examination of ROS reducing gene mRNA expression using SKpar and SKAR cells, (A, B) We plated cells and treated as indicated for 24 hrs. We examined Thioreducin-2 (A) and SOD2 (B) mRNA using Q-PCR as described in Methods.
(§4) The mRNA expression of MnSOD (SOD2), Thioreducin-2, and Gadd45 was determined using quantitative RT-PCR (Q-PCR) as previous described(37), and primer sequences are as follows.

Data set [7] relates to thioreducin-2. Particulars: 10 nM DHT. On the procedure:
as §3, §4

Data set [8] deals with p53. Particulars: 10 nM DHT for 2, 4, and 8 hrs, time-dependent.
Experimental: (A) p53 protein expression of SKpar and SKAR3 cells. We treated SKpar and SKAR3 cells with 10 nM DHT for 2, 4, and 8 hrs and measured protein abundance by immunoblotting assay using p53 specific antibody. GAPDH served as loading control.
The p53 expression was analyzed using immunoblotting assay(32) to semi-quantitate p53 protein abundance in the hepatic tumor and HCC cells. […] Protein abundance was measured by Western blotting as previously described(38) using specific antibodies against AR (Pharmingen), p53 (Cell Signaling), Gadd45, . . . , and Bcl-2 (Santa Cruz).
Data set [9] deals with SKpar cells. Conditions: SKpar-EtOH vs SKpar-DHT, 10 nM DHT, 4 days. The method, then:
as §2
(§5) The hepatic cells were isolated from 55-weeks-old DEN-treated mice and performed primary hepatic cell culture as described previously(30). The cells were plated onto 100-mm BioCoat mouse collagen I coated dishes (BD Biosciences) at a density of 5×10^5 viable cells/dish in low glucose Dulbecco's modified Eagle's medium (Invitrogen) containing 1% bovine serum albumin, 0.8 mM oleate, […] insulin (4 milliunits/ml), […] dexamethasone, 100 units of penicillin, and 1% of streptomycin/ml. Human HCC cells were obtained from Dr. Y. S. Jou in Acdemia Secienica, Taiwan published previously(31). The cells were maintained in DMEM (Invitrogen) with 10% Fetal Calf Serum (FCS), 1% Glutamine; and 1% penicillin/streptomycin.

Data set [10] relates to SKAR3 cells. Particulars: SKAR3-EtOH vs SKAR3-DHT, 10 nM DHT, 4 days. On the procedure: as §2, §5
Data set [11] concerns SKAR3 cells. Particulars: 1 nM DHT with H2O2 treatment, 24 hrs.
Experimental: (B) SKpar and SKAR3 cells were treated with 200 μM H2O2 or 1 nM DHT for 24 hrs and measured ROS level.
Data set [12] deals with primary tumor cells isolated from AR+/y mice livers. The data set is described as follows: Growth of primary cells from DEN-induced AR+/y liver tumors (MTT assay). In kind it is cell-based, mouse. For orientation: Tetrazolium dyes change colour on reduction, which living cells bring about.
Experimental: (E) Cell growth analysis using MTT assay on the cells derived from AR^+/y primary liver tumor culture in 55-weeks DEN-induced AR^+/y mice. Cells within 3 passages of subculture were used, treated with ethanol (EtOH) or DHT at different concentrations (1 and 10 nM). Cell growth was monitored for a maximum of 8 days and harvested for MTT assay. Values from background readings at 650 nm were subtracted and pooled all MTT assay results from 5 independent experiments.
(F) Primary cells were derived from 55-weeks DEN-induced AR^+/y liver tumors and cultured ex vivo. Cells were treated with ASC-J9 or cotreated with 10 nM DHT for 8 days, then harvested for MTT assay. The result represents three independent experiments.
The hepatic cells were isolated from 55-weeks-old DEN-treated mice and performed primary hepatic cell culture as described previously(30). […] The cells were maintained in DMEM (Invitrogen) with 10% Fetal Calf Serum (FCS), 1% Glutamine; and 1% penicillin/streptomycin. The cell growth assays were performed according to a previous study(32) using cell counting assay or MTT (3-(4,5-Dimethylthiazol-2-yl)-2,5-diphenyltetrazolium bromide) assay(33).
Data set [13] concerns SKAR3 cells. The data set is described as follows: SKAR3 cell apoptosis, PI staining and flowcytometry. In kind it is cell-based, human. Particulars: 5 μM ASC-J9, 24 hrs, absence or presence of 10 nM DHT.
Text: as §1

The test system of data set [14] is SKAR7 cells. The data set is described as follows: ASC-J9 effect on SKAR7 cell growth (MTT assay). Conditions: 5 μM ASC-J9, in the presence of 10 nM DHT. Format: cell-based, human.
Text: as §1

The conditions of data set [15]: injection of ASC-J9 for 15 weeks, mice; cited from earlier work.
Data set [16] relates to primary liver tumor of AR+/y mice. The data set is described as follows: Primary liver tumor cells inoculated subcutaneously into nude mice, tumor growth. In kind it is in vivo, mouse. Particulars: I.P. 50 mg/kg/mice twice per week, 17 weeks.
Text: as §1

For data set [17], the system named is SKAR3 cells. Description: ASC-J9 effect on SKAR3 cell growth (MTT assay). Format: cell-based, human. Conditions: 5 μM ASC-J9, in the presence of 10 nM DHT.
Text: as §1

“AR-siRNA: retrovirus-based vector that expresses AR-siRNA; stable SKAR3 sublines SKAR3-si1, 2 or 3 (guide GGGCCCCTGGATGGATAGCTACCTCGAGGTAGCTATCCATCCAGGGGCC)”: the DHT-induced cell growth result in data set [1] is reported as “suppression of DHT-induced cell growth”. Further, in data set [2], the AR knockdown entry is “effectively knocked down the AR”. For the same compound, in [3], the AR expression result is on record as “substantially knocked down”. Besides, the “AR-mediated transactivation under AR-siRNA” value in data set [4] (SKAR3-si1 vs SKAR3-sc, 24 hrs) was “could induce substantial AR transactivation in SKAR3-sc, but not SKAR3-si1 cells”.

For the compound `C[C@]12CCC(=O)C[C@@H]1CC[C@@H]1[C@@H]2CC[C@]2(C)[C@@H](O)CC[C@@H]12` [DHT, 5α-dihydrotestosterone], in [5], the “AR-promoted anchorage-independent cell growth” value is “little influence”. Also, the “AR transactivation induced by DHT” value in data set [4] (SKAR3-sc cells) is “could induce substantial AR transactivation”. Also, the “SOD2 mRNA expression” value in data set [6] (SKAR3 cells treated with H2O2) is reported as “decreased”. In [6] (SKpar cells), the “H2O2-induced SOD2 mRNA expression” value is “failed to suppress”. In addition, the “thioreducin-2 mRNA expression” value in data set [7] (SKAR3 cells treated with H2O2) is “decreased”. The “H2O2-induced thioreducin-2 mRNA expression” value in data set [7] (SKpar cells) is “failed to suppress”. In data set [8], the p53 protein expression result is “down-regulation of p53”. Moreover, the values for the cell growth result in data set [9] and in [10] were “little effect” and “further increased cell growth”, respectively. In addition, in data set [11], the ROS level entry is “further enhanced”. Besides, the “cell growth (cell numbers)” value in [12] (DHT 1 and 10 nM, maximum of 8 days) is reported as “cell numbers increased in a dose-dependent manner”.

Take `COc1ccc(C=CC(=O)C=C(O)C=Cc2ccc(OC)c(OC)c2)cc1OC` [ASC-J9, 5-hydroxy-1,7-bis(3,4-dimethoxyphenyl)-1,4,6-heptatrien-3-one]: in [13], the cell apoptosis result is reported as “increased cell apoptosis”. Besides, the cell growth result in data set [14] was “suppression of cell growth”. Besides, in data set [15], the serum testosterone entry was “little change in serum testosterone”; the “sexual function and fertility” value is “retained normal sexual function and fertility”. The tumor growth entry in data set [16] is listed as “suppression of tumor growth”. For the same compound, the cell growth entry in [17] is “suppression of cell growth”. For the same compound, in data set [12] (5 μM ASC-J9, absence or presence of 10 nM DHT, 8 days), the “primary tumor cell growth” value is reported as “suppressed the primary tumor cell growth”.
